Results published in ChEMBL document CHEMBL1806354 (J Med Chem, 2011).
The source made the active and inactive calls. No cut-off for these calls is given here.

Assays:
[1] = target: T1, 5-hydroxytryptamine receptor 1A (Homo sapiens, UniProt P08908); assay: Displacement of [3H]-8-OH-DPAT from 5-HT1A receptor expressed in CHO cells after 50 mins by beta liquid scintillation counter; type: cell-based
T1 sequence (P08908 whole entry): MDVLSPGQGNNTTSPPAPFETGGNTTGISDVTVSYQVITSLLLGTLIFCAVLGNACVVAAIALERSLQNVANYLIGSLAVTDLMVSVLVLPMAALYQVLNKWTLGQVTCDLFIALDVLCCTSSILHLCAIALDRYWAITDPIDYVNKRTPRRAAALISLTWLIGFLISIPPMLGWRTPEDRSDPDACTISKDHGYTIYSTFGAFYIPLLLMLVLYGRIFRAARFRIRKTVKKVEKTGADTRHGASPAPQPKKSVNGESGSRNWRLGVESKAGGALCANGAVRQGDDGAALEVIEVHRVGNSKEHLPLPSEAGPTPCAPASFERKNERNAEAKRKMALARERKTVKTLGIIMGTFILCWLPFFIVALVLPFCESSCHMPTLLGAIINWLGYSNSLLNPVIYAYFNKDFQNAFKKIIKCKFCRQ

[2] = target: D(2) dopamine receptor (Homo sapiens, UniProt P14416); assay: Displacement of [3H]spiperone from dopamine D2 receptor expressed in HEK293 cells after 50 mins by beta liquid scintillation counter; type: cell-based
[3] = target: T2, Alpha-1A adrenergic receptor (Homo sapiens, UniProt P35348); assay: Antagonist activity at adrenergic alpha1A receptor expressed in CHO cells assessed as inhibition of adrenaline-induced intracellular calcium level after 3 to 5 mins by Fluo-4/AM assay; type: functional, cell-based
T2 sequence (P35348 whole entry): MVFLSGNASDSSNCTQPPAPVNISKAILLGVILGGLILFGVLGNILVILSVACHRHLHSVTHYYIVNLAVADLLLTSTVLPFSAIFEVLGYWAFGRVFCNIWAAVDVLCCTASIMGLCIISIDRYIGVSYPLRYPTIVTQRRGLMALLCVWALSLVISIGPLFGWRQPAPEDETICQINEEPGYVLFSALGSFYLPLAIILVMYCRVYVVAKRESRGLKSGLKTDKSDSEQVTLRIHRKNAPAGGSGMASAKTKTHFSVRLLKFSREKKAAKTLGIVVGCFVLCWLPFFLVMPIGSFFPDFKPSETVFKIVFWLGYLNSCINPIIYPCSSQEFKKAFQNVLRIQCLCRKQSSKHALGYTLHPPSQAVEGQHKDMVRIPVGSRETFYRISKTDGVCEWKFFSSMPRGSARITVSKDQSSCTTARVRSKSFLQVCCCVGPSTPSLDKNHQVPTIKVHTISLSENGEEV

[4] = test system: Rattus norvegicus; assay: Antiparkinsonian effect in 6-hydroxydopamine lesioned Sprague-Dawley rat Parkinson's disease model assessed as induction of FosB expression in striatum at 1.5 mg/kg administered qd for 21 days by Western blot analysis; type: functional, organism-based; design: dose 1.5 mg/kg
[5] = test system: Rattus norvegicus; assay: Agonist activity at 5HT1A receptor in lesioned striatum of rat L-DOPA-induced dyskinesia model assessed as stimulation of 8-OH-DPAT-induced [35S]GTPgammaS binding at 1.5 mg/kg administered qd for 21 days by liquid scintillation counting; type: functional, organism-based; design: dose 1.5 mg/kg
[6] = target: T3, Alpha-1B adrenergic receptor (Homo sapiens, UniProt P35368); assay: Antagonist activity at adrenergic Alpha-1B receptor expressed in CHO cells assessed as inhibition of adrenaline-induced intracellular calcium after 3 to 5 mins by Fluo-4/AM assay; type: functional, cell-based
T3 sequence (P35368 whole entry): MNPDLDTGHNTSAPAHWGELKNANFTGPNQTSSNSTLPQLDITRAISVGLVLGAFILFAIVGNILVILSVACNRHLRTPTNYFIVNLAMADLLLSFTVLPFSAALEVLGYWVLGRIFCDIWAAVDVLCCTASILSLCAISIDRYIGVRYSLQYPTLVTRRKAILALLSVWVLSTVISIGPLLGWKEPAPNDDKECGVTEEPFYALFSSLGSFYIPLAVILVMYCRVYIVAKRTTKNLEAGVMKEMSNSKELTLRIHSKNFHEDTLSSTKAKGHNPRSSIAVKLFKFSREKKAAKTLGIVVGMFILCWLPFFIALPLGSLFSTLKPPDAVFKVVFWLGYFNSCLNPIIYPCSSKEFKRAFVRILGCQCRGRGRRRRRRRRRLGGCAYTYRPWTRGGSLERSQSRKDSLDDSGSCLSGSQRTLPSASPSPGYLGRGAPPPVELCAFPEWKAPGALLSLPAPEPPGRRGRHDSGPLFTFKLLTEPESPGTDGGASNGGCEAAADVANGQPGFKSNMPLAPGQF

[7] = target: T1, 5-hydroxytryptamine receptor 1A; assay: Agonist activity at 5-HT1A receptor expressed in CHO cells assessed as stimulation of [35S]GTPgammaS binding after 30 mins; type: functional, cell-based
[8] = test system: Rattus norvegicus; assay: Antiparkinsonian activity in 6-hydroxydopamine lesioned Sprague-Dawley rat assessed as contralateral rotations at 1.5 mg/kg, ip measured every 5 mins for 6 hrs pretreated with D2 receptor antagonist 2 mg/kg of spiperone for 15 mins before compound challenge; type: functional, organism-based
[9] = target: T4, 5-hydroxytryptamine receptor 1A (Rattus norvegicus) (UniProt P19327); assay: Decrease of 5HT1A receptor-mediated excitatory postsynaptic current amplitude in Sprague-Dawley rat median prefrontal cortex at 10 uM by whole-cell voltage clamp assay in presence of 10 uM of 5HT1A receptor antagonist WAY-100635; type: functional, tissue-based; design: scale not given: the % may be the effect or the level left
T4 sequence (whole entry): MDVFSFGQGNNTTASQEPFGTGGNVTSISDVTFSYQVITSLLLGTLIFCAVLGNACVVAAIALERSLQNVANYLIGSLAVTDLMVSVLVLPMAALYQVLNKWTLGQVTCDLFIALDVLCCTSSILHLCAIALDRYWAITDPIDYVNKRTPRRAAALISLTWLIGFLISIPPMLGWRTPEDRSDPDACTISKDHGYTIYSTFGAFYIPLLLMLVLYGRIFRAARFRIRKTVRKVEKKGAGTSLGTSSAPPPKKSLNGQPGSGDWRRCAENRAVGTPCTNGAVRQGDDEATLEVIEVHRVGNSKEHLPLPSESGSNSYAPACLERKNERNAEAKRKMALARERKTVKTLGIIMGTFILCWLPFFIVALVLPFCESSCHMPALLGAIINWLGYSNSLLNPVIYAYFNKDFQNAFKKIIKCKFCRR

[10] = test system: Rattus norvegicus; assay: Antiparkinsonian effect in 21 days L-DOPA treated Parkinson's disease rat model assessed as reduction in L-DOPA-induced dyskinesia at 0.5 to 1.5 mg/kg, ip administered 15 mins before L-DOPA challenge on day 23; type: functional, organism-based
[11] = test system: Rattus norvegicus; assay: Toxicity in Parkinson's disease rat model of assessed as induction of dyskinesia at 0.5 to 1.5 mg/kg, ip qd for 21 days; type: organism-based; design: dose 0.5-1.5 mg/kg, route intraperitoneal; settings: in vivo, 504 h
[12] = target: T4, 5-hydroxytryptamine receptor 1A (Rattus norvegicus); assay: Effect on 5HT1A receptor-mediated pair pulse ratio in Sprague-Dawley rat median prefrontal cortex at 10 uM by whole-cell voltage clamp assay; type: tissue-based
[13] = test system: Rattus norvegicus; assay: Antiparkinsonian effect in 6-hydroxydopamine lesioned Sprague-Dawley rat Parkinson's disease model assessed as inhibition of L-DOPA-enhanced FosB expression in striatum at 1.5 mg/kg administered qd for 21 days by Western blot analysis; type: functional, organism-based; design: dose 1.5 mg/kg

Sequence of D(2) dopamine receptor (P14416 whole entry): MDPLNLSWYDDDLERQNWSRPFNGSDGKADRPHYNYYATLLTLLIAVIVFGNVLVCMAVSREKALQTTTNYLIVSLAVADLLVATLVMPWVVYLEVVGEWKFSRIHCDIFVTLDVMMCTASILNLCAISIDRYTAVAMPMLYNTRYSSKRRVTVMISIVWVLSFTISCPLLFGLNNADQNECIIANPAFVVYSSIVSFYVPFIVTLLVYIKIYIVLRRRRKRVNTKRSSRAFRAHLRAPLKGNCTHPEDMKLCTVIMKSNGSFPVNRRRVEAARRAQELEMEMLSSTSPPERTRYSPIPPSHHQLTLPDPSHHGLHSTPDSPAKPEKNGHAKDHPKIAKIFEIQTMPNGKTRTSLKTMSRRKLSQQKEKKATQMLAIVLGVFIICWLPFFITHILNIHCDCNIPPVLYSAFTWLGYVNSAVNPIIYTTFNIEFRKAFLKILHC

`CCCN1CCc2cccc3c2[C@H]1Cc1cccc(OC(=O)CCCCC2CCSS2)c1-3` (stereo partly drawn) gave a Ki [1] of 66 nM, a Ki [2] of 174 nM and an IC50 [3] of over 10000 nM. For the same compound, the Activity [4] was “inactive”, the Activity [5] was “Active” and the IC50 [6] was over 10000 nM. The EC50 [7] was 190 nM, the Activity [8] was “inactive” and the Activity [9] was 99.4%. For the same compound, the Activity [10] was “inactive”, the Activity [11] was “Non-toxic” and the Activity [12] was 114%. For the same compound, the Activity [13] was “Active”.
